These results are taken from ChEMBL document CHEMBL3045682, “Synthesis of some new indolo[2,3-c]isoquinolinyl pyrazoles, -1,3,4-oxadiazoles and their biological activities” (2013).

Common to all, as to type: functional
Test [1] concerns Radical scavenging activity. Kind of test: Antioxidant activity assessed as DPPH free radical scavenging activity at 100 ug/ml by spectrophotometric analysis relative to control. (In general: Loss of DPPH colour is used to gauge radical scavenging.)
Another test has as its system Aspergillus fumigatus. Put plainly: Antifungal activity against Aspergillus fumigatus assessed as growth inhibition at 1 mg/ml by cup-plate method. The following applies: read-out: IZ.
A further test relates to Aspergillus flavus. Kind of test: Antifungal activity against Aspergillus flavus assessed as growth inhibition at 1 mg/ml by cup-plate method. Particulars: read-out: IZ.
A further test has as its system Aspergillus niger. Put plainly: Antifungal activity against Aspergillus niger assessed as growth inhibition at 1 mg/ml by cup-plate method. The following applies: read-out: IZ.
A further test deals with Pseudomonas putida. Put plainly: Antibacterial activity against Pseudomonas putida assessed as growth inhibition at 1 mg/ml by cup-plate method. The following applies: read-out: IZ.
The next test relates to Bacillus subtilis. Kind of test: Antibacterial activity against Bacillus subtilis assessed as growth inhibition at 1 mg/ml by cup-plate method. Particulars: read-out: IZ.
The next test has as its system Escherichia coli. Put plainly: Antibacterial activity against Escherichia coli assessed as growth inhibition at 1 mg/ml by cup-plate method. Particulars: read-out: IZ.
Test [2] has as its system Radical scavenging activity. Put plainly: Antioxidant activity assessed as DPPH free radical scavenging activity at 75 ug/ml by spectrophotometric analysis relative to control.
In test [3] the test system is Radical scavenging activity. Put plainly: Antioxidant activity assessed as DPPH free radical scavenging activity at 50 ug/ml by spectrophotometric analysis relative to control.
For test [4], the system named is Radical scavenging activity. Kind of test: Antioxidant activity assessed as DPPH free radical scavenging activity at 25 ug/ml by spectrophotometric analysis relative to control.

As to `Cc1ccc2[nH]c3c(c2c1)c1ccccc1c(=O)n3C(=O)n1nc(C)cc1C`, in [1], the Activity worked out at 64.7%. The zone of inhibition at 1000 µg/mL in the test with Aspergillus fumigatus is 11 mm; in the test with Aspergillus flavus, 16 mm; in the test on Aspergillus niger it was 8 mm; in the test with Pseudomonas putida, 10 mm; with Bacillus subtilis, 11 mm; in the test with Escherichia coli, 13 mm.
Regarding `COc1ccc2[nH]c3c(c2c1)c1ccccc1c(=O)n3C(=O)n1nc(C)cc1C`, the Activity in test [2] worked out at 53.8%. The zone of inhibition at 1000 µg/mL with Aspergillus fumigatus came out at 4 mm; in the test with Aspergillus flavus, 8 mm; in the test on Aspergillus niger, 10 mm; in the test with Pseudomonas putida, 10 mm; in the test on Bacillus subtilis, 8 mm; with Escherichia coli, 11 mm.
`CC1=NN(C(=O)n2c(=O)c3ccccc3c3c4cc(C)ccc4[nH]c32)C(=O)C1`: the Activity in test [2] was found to be 56.5%; in test [3], 64.2%; in [4], 58%. In addition, the zone of inhibition at 1000 µg/mL in the test on Aspergillus fumigatus amounted to 15 mm; in the test on Aspergillus flavus it was 14 mm; with Aspergillus niger it was 12 mm; in the test with Pseudomonas putida, 18 mm; in the test with Bacillus subtilis it was 8 mm; in the test with Escherichia coli, 10 mm.
As to `COc1ccc2[nH]c3c(c2c1)c1ccccc1c(=O)n3-c1n[nH]c(=S)o1`, the figures for the Activity in test [3] and in [4] were 67.8% and 60.8%, respectively. Also, the zone of inhibition at 1000 µg/mL worked out at 15 mm with Aspergillus fumigatus; 10 mm in the test on Aspergillus flavus; 10 mm in the test on Aspergillus niger; 7 mm in the test with Pseudomonas putida; 10 mm in the test with Bacillus subtilis; 13 mm in the test on Escherichia coli.
On to `O=c1c2ccccc2c2c3cc(Cl)ccc3[nH]c2n1-c1n[nH]c(=S)o1`, for which the Activity is 68.9% in test [1], 58% in [2], 69.8% in test [3] and 68.3% in test [4]. In addition, the zone of inhibition at 1000 µg/mL with Aspergillus fumigatus was 17 mm; in the test with Aspergillus flavus, 16 mm; in the test on Aspergillus niger, 17 mm; in the test with Pseudomonas putida, 20 mm; in the test with Bacillus subtilis, 19 mm; in the test on Escherichia coli, 18 mm.
For the compound `Cc1cc(C)n(C(=O)n2c(=O)c3ccccc3c3c4cc(Cl)ccc4[nH]c32)n1`, the zone of inhibition at 1000 µg/mL came out at 15 mm with Aspergillus fumigatus; 11 mm in the test with Aspergillus flavus; 16 mm in the test on Aspergillus niger; 19 mm with Pseudomonas putida; 11 mm in the test with Bacillus subtilis; 9 mm in the test on Escherichia coli.
`O=C(n1nc(-c2ccccc2)cc1-c1ccccc1)n1c(=O)c2ccccc2c2c3cc(Cl)ccc3[nH]c21`: the zone of inhibition at 1000 µg/mL in the test with Aspergillus fumigatus was 15 mm; in the test on Aspergillus flavus, 9 mm; in the test with Aspergillus niger, 4 mm; in the test on Pseudomonas putida, 18 mm; in the test on Bacillus subtilis it was 13 mm; in the test with Escherichia coli, 10 mm.
With `COc1ccc2[nH]c3c(c2c1)c1ccccc1c(=O)n3C(=O)n1nc(-c2ccccc2)cc1-c1ccccc1`, in test [4], the Activity worked out at 60%. Moreover, the zone of inhibition at 1000 µg/mL with Aspergillus fumigatus came to 15 mm; in the test on Aspergillus flavus, 17 mm; with Aspergillus niger, 9 mm; in the test with Pseudomonas putida it was 17 mm; with Bacillus subtilis, 11 mm; with Escherichia coli, 11 mm.
Consider `Cc1ccc2[nH]c3c(c2c1)c1ccccc1c(=O)n3-c1n[nH]c(=S)o1`, for which the Activity in test [3] amounted to 65.4%; in test [4] it was 57.7%. Moreover, the zone of inhibition at 1000 µg/mL in the test with Aspergillus fumigatus was 10 mm; in the test on Aspergillus flavus it was 13 mm; in the test on Aspergillus niger, 8 mm; in the test with Pseudomonas putida, 19 mm; with Bacillus subtilis, 11 mm; with Escherichia coli it was 11 mm.
As for `Cc1ccc2[nH]c3c(c2c1)c1ccccc1c(=O)n3C(=O)n1nc(-c2ccccc2)cc1-c1ccccc1`, the Activity in [3] was found to be 56.9%; in [4], 56.2%. Besides, the zone of inhibition at 1000 µg/mL in the test on Aspergillus fumigatus came out at 4 mm; in the test on Aspergillus flavus it was 13 mm; with Aspergillus niger, 15 mm; with Pseudomonas putida, 13 mm; with Bacillus subtilis, 9 mm; in the test with Escherichia coli it was 5 mm.
Turning to `CC1=NN(C(=O)n2c(=O)c3ccccc3c3c4cc(Cl)ccc4[nH]c32)C(=O)C1`, in test [4], the Activity amounted to 67.5%. For the same compound, the zone of inhibition at 1000 µg/mL in the test on Aspergillus fumigatus was found to be 13 mm; in the test with Aspergillus flavus, 9 mm; in the test on Aspergillus niger, 6 mm; with Pseudomonas putida, 15 mm; in the test with Bacillus subtilis, 10 mm; with Escherichia coli it was 7 mm.
In the case of `COc1ccc2[nH]c3c(c2c1)c1ccccc1c(=O)n3C(=O)N1N=C(C)CC1=O`, the zone of inhibition at 1000 µg/mL was determined as 4 mm in the test with Aspergillus fumigatus; 7 mm in the test on Aspergillus flavus; 9 mm with Aspergillus niger; 10 mm with Pseudomonas putida; 10 mm with Bacillus subtilis; 17 mm in the test on Escherichia coli.
Regarding `CN[C@@H]1[C@H](O[C@H]2[C@H](O[C@H]3[C@H](O)[C@@H](O)[C@H](N=C(N)N)[C@@H](O)[C@@H]3N=C(N)N)O[C@@H](C)[C@]2(O)C=O)O[C@@H](CO)[C@H](O)[C@H]1O` [STREPTOMYCIN], the zone of inhibition at 1000 µg/mL in the test on Pseudomonas putida was determined as 22 mm; with Bacillus subtilis, 20 mm; in the test with Escherichia coli, 19 mm.
In the case of `OC(Cn1cncn1)(Cn1cncn1)c1ccc(F)cc1F` [FLUCONAZOLE], the zone of inhibition at 1000 µg/mL with Aspergillus fumigatus worked out at 18 mm; in the test with Aspergillus flavus, 19 mm; with Aspergillus niger, 18 mm.
